The source made the active and inactive calls.
Key:
Vero = assay: cells; assay type: functional; settings: Chlorocebus sabaeus
[1] = target: T1, Short transient receptor potential channel 4 (Mus musculus, UniProt Q9QUQ5); assay: mouse TRPC4 channel activators, dose response, cell-based, HEK293 TRPC4/mu-opioid, Fluo-4 calcium (AID 434937); assay type: functional
T1 sequence (Q9QUQ5 whole entry): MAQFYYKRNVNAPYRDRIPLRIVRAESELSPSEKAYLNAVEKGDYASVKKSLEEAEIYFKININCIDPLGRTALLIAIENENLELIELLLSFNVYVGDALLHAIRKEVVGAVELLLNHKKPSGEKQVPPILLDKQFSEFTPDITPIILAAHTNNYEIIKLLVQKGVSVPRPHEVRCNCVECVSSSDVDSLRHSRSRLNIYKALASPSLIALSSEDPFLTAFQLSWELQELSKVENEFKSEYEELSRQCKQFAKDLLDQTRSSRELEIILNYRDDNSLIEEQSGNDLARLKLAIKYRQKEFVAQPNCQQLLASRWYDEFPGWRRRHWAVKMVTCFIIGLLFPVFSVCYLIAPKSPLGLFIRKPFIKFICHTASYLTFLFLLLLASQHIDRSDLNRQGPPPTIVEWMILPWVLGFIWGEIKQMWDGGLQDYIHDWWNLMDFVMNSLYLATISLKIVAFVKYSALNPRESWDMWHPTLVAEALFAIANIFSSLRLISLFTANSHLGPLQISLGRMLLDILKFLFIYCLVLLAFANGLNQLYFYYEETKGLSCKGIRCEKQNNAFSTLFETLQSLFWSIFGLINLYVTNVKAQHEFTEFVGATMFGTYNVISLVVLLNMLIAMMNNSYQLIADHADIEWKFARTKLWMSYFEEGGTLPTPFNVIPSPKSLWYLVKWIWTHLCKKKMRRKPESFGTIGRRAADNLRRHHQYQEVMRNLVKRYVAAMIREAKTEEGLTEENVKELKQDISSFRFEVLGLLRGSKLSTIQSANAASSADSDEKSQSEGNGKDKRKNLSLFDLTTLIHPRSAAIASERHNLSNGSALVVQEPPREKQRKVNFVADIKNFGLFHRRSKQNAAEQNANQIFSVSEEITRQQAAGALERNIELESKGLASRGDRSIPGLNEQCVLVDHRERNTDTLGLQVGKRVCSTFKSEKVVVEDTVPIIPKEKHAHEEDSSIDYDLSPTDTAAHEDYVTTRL

[2] = inhibitors of firefly luciferase expression or activity, dose response, H4 neuroglioma cells, luminescence (AID 1990); assay type: functional, cell-based
BJ [3] = assay: cytotoxicity toward BJ-TERT fibroblasts, dose response, cell-based, RAS-independent, luminescence (AID 1933); assay type: functional; settings: Homo sapiens
[4] = Luminescence Cell-Based Dose Response HTS to Identify Inhibitors of 5'UTR Stem-Loop Driven Prion Protein mRNA Translation in H4 Neuroglioblastoma Cells. [Related pubchem assays: 1827 (Project Summary), 1813 (Primary HTS)]; assay type: functional
[5] = inhibitors of SNCA 5'UTR-driven reporter translation, confirmation, H4 neuroglioma cells, luminescence (AID 1988); assay type: functional, cell-based
BJ [6] = assay: cells; assay type: functional, cell-based; settings: Homo sapiens
BJ [7] = assay: cytotoxicity toward BJ-TERT-LT-ST fibroblasts, dose response, cell-based, RAS-independent, luminescence (AID 1935); assay type: functional; settings: Homo sapiens;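 further: BJ fibroblasts immortalized with TERT plus LT and ST oncogenes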
[8] = cytotoxicity toward DRD oncogenic fibroblasts, dose response, cell-based, non-viral oncogenic, luminescence (AID 1934); assay type: functional; settings: Homo sapiens
[9] = cytotoxicity in HEK-293T cells, dose response, cytotoxicity control for TCR NF-kB inhibitor project, luminescence, T-cell screen hits (AID 489026); assay type: functional, cell-based;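 further: cells exposed to compound about 14 hours before the viability readout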
[10] = target: T2, Calpain-2 catalytic subunit (Sus scrofa, UniProt P43367); assay: pig calpain II inhibitor potency, dose response, biochemical, fluorogenic peptide substrate (AID 1420); assay type: functional
T2 sequence (P43367 whole entry): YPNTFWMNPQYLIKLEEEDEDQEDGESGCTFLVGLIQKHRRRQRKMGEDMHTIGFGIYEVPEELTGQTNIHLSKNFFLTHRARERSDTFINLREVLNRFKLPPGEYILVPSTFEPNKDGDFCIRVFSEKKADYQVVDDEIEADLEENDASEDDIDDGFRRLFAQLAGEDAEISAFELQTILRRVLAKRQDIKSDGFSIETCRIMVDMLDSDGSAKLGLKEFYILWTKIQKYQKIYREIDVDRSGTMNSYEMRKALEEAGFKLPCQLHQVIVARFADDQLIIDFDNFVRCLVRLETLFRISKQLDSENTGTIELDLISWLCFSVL

[11] = target: T3, Small ubiquitin-related modifier 1 (Homo sapiens, UniProt P63165); assay: inhibitors of SUMO1 peptide binding, dose response, biochemical, fluorescence polarization, uHTS hits (AID 624382); assay type: functional; settings: read-out: IC50_Mean
[12] = target: T3, Small ubiquitin-related modifier 1; assay: inhibitors of SUMO1 partner interactions, dose response, biochemical, FRET (AID 624383); assay type: functional; settings: read-out: IC50_Mean
[13] = target: T4, DNA repair and recombination protein RAD54-like (Homo sapiens, UniProt Q92698); assay: inhibitors of human RAD54 branch migration, confirmation, biochemical, fluorescence, cherry-picked samples, dose series (AID 651657); assay type: functional
T4 sequence (Q92698 whole entry): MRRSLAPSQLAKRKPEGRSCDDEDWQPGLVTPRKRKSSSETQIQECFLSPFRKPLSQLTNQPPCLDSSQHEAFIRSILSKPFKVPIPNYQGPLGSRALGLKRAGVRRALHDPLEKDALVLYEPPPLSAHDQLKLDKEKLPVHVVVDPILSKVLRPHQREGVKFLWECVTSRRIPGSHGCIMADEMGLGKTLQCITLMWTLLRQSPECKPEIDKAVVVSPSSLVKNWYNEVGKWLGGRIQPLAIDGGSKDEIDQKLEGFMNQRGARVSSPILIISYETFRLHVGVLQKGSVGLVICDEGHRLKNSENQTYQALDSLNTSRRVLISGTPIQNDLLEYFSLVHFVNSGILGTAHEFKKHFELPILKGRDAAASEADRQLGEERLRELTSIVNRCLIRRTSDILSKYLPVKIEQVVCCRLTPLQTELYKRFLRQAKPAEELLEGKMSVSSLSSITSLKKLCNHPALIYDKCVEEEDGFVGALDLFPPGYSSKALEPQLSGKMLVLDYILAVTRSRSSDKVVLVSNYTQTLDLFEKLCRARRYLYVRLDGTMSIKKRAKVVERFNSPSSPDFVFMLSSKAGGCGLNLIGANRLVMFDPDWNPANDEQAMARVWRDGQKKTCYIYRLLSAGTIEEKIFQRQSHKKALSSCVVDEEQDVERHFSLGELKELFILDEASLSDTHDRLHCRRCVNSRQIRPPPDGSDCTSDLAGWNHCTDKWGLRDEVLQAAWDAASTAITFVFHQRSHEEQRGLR

[14] = target: T5, Endoribonuclease toxin MazF (Escherichia coli K-12, UniProt P0AE70); assay: MazF toxin RNase activators, dose response, biochemical, fluorescence, single-stranded RNA substrate, uHTS hits (AID 588481); assay type: functional
T5 sequence (P0AE70 whole entry): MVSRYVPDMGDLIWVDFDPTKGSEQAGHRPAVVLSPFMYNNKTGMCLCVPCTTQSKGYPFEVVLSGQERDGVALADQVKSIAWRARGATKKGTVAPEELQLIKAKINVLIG

[15] = target: T5, Endoribonuclease toxin MazF; assay: fluorescent RNA oligo signal without MazF, dose response, counter-screen for MazEF activator project, biochemical, fluorescence, single-stranded RNase substrate (AID 588502); assay type: functional
HEK293 = assay: cells; assay type: functional, cell-based; settings: Homo sapiens
[16] = target: T6, Nuclear receptor subfamily 0 group B member 1 (Homo sapiens, UniProt P51843); assay: Luminescence-based cell-based high throughput dose response assay for inhibitors of the orphan nuclear receptor subfamily 0, group B, member 1 (DAX1; NR0B1). [Related pubchem assays (depositor defined):AID504766, AID504790]; assay type: functional
T6 sequence (P51843 whole entry): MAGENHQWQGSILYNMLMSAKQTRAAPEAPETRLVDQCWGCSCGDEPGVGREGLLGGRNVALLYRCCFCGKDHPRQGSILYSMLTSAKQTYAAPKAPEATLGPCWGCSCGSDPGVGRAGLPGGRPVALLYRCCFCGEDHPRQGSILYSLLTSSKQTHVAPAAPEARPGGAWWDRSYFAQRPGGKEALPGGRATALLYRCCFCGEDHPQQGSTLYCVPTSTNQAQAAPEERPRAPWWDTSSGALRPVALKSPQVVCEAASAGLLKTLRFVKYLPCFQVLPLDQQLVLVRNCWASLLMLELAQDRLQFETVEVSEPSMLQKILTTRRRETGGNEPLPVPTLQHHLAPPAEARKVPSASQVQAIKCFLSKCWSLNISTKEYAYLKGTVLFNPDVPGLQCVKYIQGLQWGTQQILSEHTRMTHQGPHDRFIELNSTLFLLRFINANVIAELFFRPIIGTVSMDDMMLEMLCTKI

[17] = target: T7, RNA-binding protein pos-1 (Caenorhabditis elegans, UniProt G5EF15); assay: inhibitors of POS-1/mex-3 RNA binding, dose response, biochemical, fluorescence polarization (AID 1964);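 further: purified POS-1 fused to maltose binding protein made in E. coli; potency of compounds blocking POS-1 binding to fluorescent RNA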
T7 sequence (G5EF15 whole entry): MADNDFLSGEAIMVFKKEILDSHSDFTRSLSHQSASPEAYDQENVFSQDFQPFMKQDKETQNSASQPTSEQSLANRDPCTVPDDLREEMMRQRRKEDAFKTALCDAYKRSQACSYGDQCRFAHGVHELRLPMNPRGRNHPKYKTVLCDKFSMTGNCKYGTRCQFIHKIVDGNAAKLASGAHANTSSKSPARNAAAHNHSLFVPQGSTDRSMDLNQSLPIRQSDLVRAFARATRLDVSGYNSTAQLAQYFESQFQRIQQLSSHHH

[18] = target: T8, Zinc finger protein mex-5 (Caenorhabditis elegans, UniProt Q9XUB2); assay: MEX-5/TCR-2 RNA interaction inhibitors, dose response, biochemical, C. elegans, fluorescence polarization (AID 1960)
T8 sequence (Q9XUB2 whole entry): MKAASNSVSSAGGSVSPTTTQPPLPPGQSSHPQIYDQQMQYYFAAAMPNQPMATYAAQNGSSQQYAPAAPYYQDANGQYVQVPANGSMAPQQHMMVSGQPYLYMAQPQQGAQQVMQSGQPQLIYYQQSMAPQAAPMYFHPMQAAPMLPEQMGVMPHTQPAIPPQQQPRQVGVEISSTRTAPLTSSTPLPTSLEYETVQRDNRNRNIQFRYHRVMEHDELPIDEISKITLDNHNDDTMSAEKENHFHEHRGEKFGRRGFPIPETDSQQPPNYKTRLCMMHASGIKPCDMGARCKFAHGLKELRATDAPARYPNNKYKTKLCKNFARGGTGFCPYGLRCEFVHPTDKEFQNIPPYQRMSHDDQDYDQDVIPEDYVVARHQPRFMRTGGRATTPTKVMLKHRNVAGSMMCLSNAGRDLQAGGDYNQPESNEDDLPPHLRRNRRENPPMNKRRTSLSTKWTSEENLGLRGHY

T3 sequence (P63165 whole entry): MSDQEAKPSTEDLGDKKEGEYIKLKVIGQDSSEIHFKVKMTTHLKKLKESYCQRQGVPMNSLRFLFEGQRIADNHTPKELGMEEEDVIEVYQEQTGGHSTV

COc1ccc(/C=C2/CSC/C(=C/c3ccc(OC)c(OC)c3)C2=O)cc1OC
CC50 (Vero): 8.1 µM (active)

COc1ccc(C(CNC(=O)c2cccc(S(=O)(=O)NCc3ccccc3)c2)N(C)C)cc1 (stereo not drawn)
EC50 [1]: 0.421 µM (active)

Oc1cc(-c2ccccc2)nc2cc(Cl)ccc12
EC50 [2]: 2.42 µM (inconclusive)
EC50 (BJ [3]): 1.04 µM (active)
EC50 [4]: 2.36 µM (active)
EC50 [5]: 0.209 µM (active)
EC50 (BJ [6]): 19.8 µM (active)
EC50 (BJ [7]): 1.42 µM (inconclusive)
EC50 [8]: 0.906 µM (inconclusive)
IC50 [9]: > 80 µM (inactive)

O=[N+]([O-])c1ccc(N2CCCNCC2)c2ncccc12
EC50 [1]: 0.008 µM (active)

O=C(Nc1ccc(Nc2ccncc2)cc1)c1ccc(Nc2ccnc3ccc([N+](=O)[O-])cc23)cc1
IC50 [10]: 3.36 µM (not active)
IC50 [11]: > 66.6 µM (inactive)
IC50 [12]: 0.326 µM (active)
AC50 [13]: 100 µM (inactive)

CCOc1ccccc1NC(=O)Cn1cnc2c(cnn2-c2ccc(C)c(C)c2)c1=O
EC50 [14]: > 99 µM (inactive)
EC50 [15]: > 99 µM (inactive)

COc1ccc(CN2CCC(n3nccc3NC(=O)CCc3ccccc3)CC2)c(C)c1C
EC50 [1]: 2.11 µM (active)

COc1ccc(-c2cc3nc4n(c(=O)c3s2)CCCCC4)cc1
IC50 (HEK293): > 67.5 µM (inactive)
IC50 [16]: > 67.5 µM (inactive)

CCOc1cnc(C(=O)NNC(=O)C(Br)C(C)C)o1 (stereo not drawn)
IC50 (HEK293): > 67.5 µM (inactive)
IC50 [16]: > 67.5 µM (inactive)

Cc1ccc2[nH]c(SCC(=O)Nc3cc(C(F)(F)F)ccc3N3CCOCC3)nc2c1
EC50 [2]: 5.2 µM (inconclusive)
EC50 [4]: 27.9 µM (active)
IC50 [9]: > 80 µM (inactive)

COCCN(C(S)=Nc1cccc(C)c1C)C(C)c1ccco1 (stereo not drawn)
IC50 (HEK293): > 67.6 µM (inactive)
IC50 [16]: > 67.6 µM (inactive)

CCN1C(=O)/C(=C2\C=Cc3ccccc3N2CC)OC1=S
EC50 [14]: > 99 µM (inactive)
EC50 [15]: > 99 µM (inactive)

Cc1csc2c(N3CCN(C(=O)NC(C)(C)C)CC3)ncnc12
EC50 [1]: 5.31 µM (active)

COc1ccccc1C(=O)NCc1nnc(SCC(=O)Nc2nccs2)n1C
IC50 (HEK293): > 67.6 µM (inactive)
IC50 [16]: > 67.6 µM (inactive)

COc1ccc(/C=C2\CCCC(C(=O)C(F)(F)F)=C2O)cc1
EC50 [17]: 36 µM (inconclusive)
EC50 [18]: 41.4 µM (active)
EC50 [14]: > 99 µM (inactive)
EC50 [15]: 33.8 µM (inactive)

COc1ccc(-c2[nH]ncc2CN2CCN(Cc3cccs3)CC2)cc1F
IC50 (HEK293): > 67.5 µM (inactive)
IC50 [16]: > 67.5 µM (inactive)

From ChEMBL document CHEMBL1201862, “PubChem BioAssay data set” (2004)
